Residues, ends and D or L forms follow the SMILES beside them.

The target in one assay is T1, human NMUR1 receptor (Homo sapiens, UniProt Q9HB89).
T1 construct: expressed in transfected cells; host or cells: CHO-K1
T1 sequence (Q9HB89 1-426): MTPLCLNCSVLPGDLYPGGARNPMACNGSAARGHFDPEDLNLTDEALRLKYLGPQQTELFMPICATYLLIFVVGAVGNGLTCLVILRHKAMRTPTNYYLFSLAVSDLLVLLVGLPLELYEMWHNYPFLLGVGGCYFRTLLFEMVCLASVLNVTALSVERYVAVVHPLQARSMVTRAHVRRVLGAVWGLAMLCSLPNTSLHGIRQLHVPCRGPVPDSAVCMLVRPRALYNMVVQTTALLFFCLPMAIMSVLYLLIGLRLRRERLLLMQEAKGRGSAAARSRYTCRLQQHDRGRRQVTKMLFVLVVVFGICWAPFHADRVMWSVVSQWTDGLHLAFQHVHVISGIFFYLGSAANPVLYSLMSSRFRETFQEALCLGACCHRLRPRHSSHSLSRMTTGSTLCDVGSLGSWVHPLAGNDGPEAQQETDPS
Kind of assay: IP1 Gq HTRF assay, activation of human NMUR1 in buffer. Type of assay: cell-based. The settings on record: CHO-K1 cells expressing human NMUR1, stimulation buffer with 0.1% BSA; read-out: EC50 (hNMUR1) buffer. The procedure, abridged: (§1)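 IP-One HTRF competition (665/620 nm ratio) read after 1 h agonist exposure at 37 °C in pH 7.4 HEPES/HBSS stimulation buffer containing 50 mM LiCl, 0.1% BSA, 1% DMSO. Cells: CHO-K1 stably expressing human NMUR2 or NMUR1. EC50 by 4-parameter nonlinear regression of 8-point curves.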
For orientation: In TR-FRET formats the signal depends on donor and acceptor labels being close together.

Assay [1] deals with T2, human NMUR2 receptor (Homo sapiens, UniProt Q9GZQ4). Nature of the assay: Radioligand binding competition assay (RLB), human NMUR2 receptor binding (SPA, [125I]-Neuromedin U-25). Also on record: host or cells: CHO-K1. The settings on record: CHO-K1 hNMUR2 cell membranes, 4 hours at RT.
For assay [2], the target named is T2, human NMUR2 receptor. Kind of assay: IP1 Gq HTRF assay, activation of human NMUR2 in buffer. The conditions noted are these: CHO-K1 cells expressing human NMUR2, stimulation buffer with 0.1% BSA; read-out: EC50 (hNMUR2) buffer. Also on record: expressed in transfected cells; host or cells: CHO-K1. Type of assay: cell-based. The procedure, abridged:
as §1

T2 sequence (Q9GZQ4 whole entry): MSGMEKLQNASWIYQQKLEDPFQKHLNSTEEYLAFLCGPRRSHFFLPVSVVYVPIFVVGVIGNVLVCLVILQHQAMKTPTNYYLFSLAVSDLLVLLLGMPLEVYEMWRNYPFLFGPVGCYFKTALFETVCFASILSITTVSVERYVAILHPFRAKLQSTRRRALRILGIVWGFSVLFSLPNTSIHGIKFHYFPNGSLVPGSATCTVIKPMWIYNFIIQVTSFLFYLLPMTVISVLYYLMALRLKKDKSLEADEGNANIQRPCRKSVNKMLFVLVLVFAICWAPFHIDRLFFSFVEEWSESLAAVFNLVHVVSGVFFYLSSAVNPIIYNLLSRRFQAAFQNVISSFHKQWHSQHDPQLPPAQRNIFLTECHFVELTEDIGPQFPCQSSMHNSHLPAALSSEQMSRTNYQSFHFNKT

What is called EC50 is the concentration at which the effect is half-maximal. One may read the Ki as a dissociation constant, usually derived from enzyme kinetics or from competition with a known ligand. Read a high Ki as weaker binding. For `CCCC[C@H](NC(=O)[C@H](CC(C)C)N(C)C(=O)[C@H](Cc1ccccc1)NC(=O)[C@H](Cc1ccc(O)cc1)NC(=O)CN1CCN(CCNC(=O)CN(C)C(=O)CN(C)C(=O)CN(C)C(=O)CN(C)C(=O)CN(C)C(=O)CN(C)C(=O)CN(C)C(=O)CN(C)C(=O)CN(C)C(=O)CN(C)C(=O)CN(C)C(=O)CN(C)C(=O)CN(C)C(=O)CN(C)C(=O)CN(C)C(=O)CC[C@H](NC(=O)CC[C@H](NC(=O)CC[C@H](NC(=O)CCCCCCCCCCCCCCCCCCC(=O)O)C(=O)O)C(=O)O)C(=O)O)CC1)C(=O)N[C@@H](CCN)C(=O)N(C)[C@@H](C)C(=O)N[C@@H](CCCNC(=N)N)C(=O)NCC(N)=O` [Compound 43, C20DA-gGlu3-Sar15-AEPipAc-Tyr-Phe-NMeLeu-Nle-Dbu-NMeAla-Arg-Gly-NH2] (HELM PEPTIDE1{[O=C(O)CCCCCCCCCCCCCCCCCCC(=O)[*:2]].[gGlu].[gGlu].[gGlu].[Sar].[Sar].[Sar].[Sar].[Sar].[Sar].[Sar].[Sar].[Sar].[Sar].[Sar].[Sar].[Sar].[Sar].[Sar].[O=C(CN1CCN(CCN[*:1])CC1)[*:2]].Y.F.[meL].[Nle].[Dab].[meA].R.G.[am]}$$$$V2.0), the EC50 was greater than 1000 nM at human NMUR1 receptor and 3.9 nM at human NMUR2 receptor [2]. On human NMUR2 receptor [1], the affinity corresponds to a Ki of 32.6 nM.

For the molecule `CCCC[C@H](NC(=O)[C@H](CC(C)C)N(C)C(=O)[C@H](Cc1ccccc1)NC(=O)[C@H](Cc1ccc(O)cc1)NC(=O)CN1CCN(CCNC(=O)CN(C)C(=O)CN(C)C(=O)CN(C)C(=O)CN(C)C(=O)CN(C)C(=O)CN(C)C(=O)CN(C)C(=O)CN(C)C(=O)CN(C)C(=O)CC[C@H](NC(=O)CC[C@H](NC(=O)CC[C@H](NC(=O)CCCCCCCCCCCCCCCCCCC(=O)O)C(=O)O)C(=O)O)C(=O)O)CC1)C(=O)N[C@@H](CCCNC(=N)N)C(=O)N1CCC[C@H]1C(=O)N[C@@H](CCCNC(=N)N)C(=O)NCC(N)=O` [Compound 65, C20DA-gGlu3-Sar9-AEPipAc-Tyr-Phe-NMeLeu-Nle-Arg-Pro-Arg-Gly-NH2] (HELM PEPTIDE1{[O=C(O)CCCCCCCCCCCCCCCCCCC(=O)[*:2]].[gGlu].[gGlu].[gGlu].[Sar].[Sar].[Sar].[Sar].[Sar].[Sar].[Sar].[Sar].[Sar].[O=C(CN1CCN(CCN[*:1])CC1)[*:2]].Y.F.[meL].[Nle].R.P.R.G.[am]}$$$$V2.0), the 50% effective concentration (EC50) turned out to be 130 nM at human NMUR1 receptor and 2.8 nM at human NMUR2 receptor [2]. At human NMUR2 receptor [1], the Ki was found to be 25.3 nM.
